According to PubChem BioAssay AID248 (DTP/NCI, 2004):
Several values for one entry are separate records, joined by “and”; a condition that tells them apart may be missing. Equal values may be shown once. Toxic doses and inconclusive results are not listed. No stated cut-off is given here; in the data, active means T/C of 150% or more; inactive means T/C below 125%.

System: L1210 leukemia ip in BDF1 mice, survival T/C
Assay: NCI In Vivo Anticancer Drug Screen. Data for tumor model L1210 Leukemia (intraperitoneal) in B6D2F1 (BDF1) mice
Settings: endpoint: mean survival time, higher = longer survival
Outline: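 Antitumor effect is assessed in tumor-bearing animals. Survival in the compound arm is compared with a vehicle-dosed control arm and expressed as their quotient.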

[1] = dose: 100.0 mg/kg/injection, schedule: Q01DX009 (ip), vehicle: Klucel (hydroxypropylcellulose) (HPC)
[2] = dose: 100.0 mg/kg/injection, schedule: Q04DX003 (ip), vehicle: Klucel (hydroxypropylcellulose) (HPC)
[3] = dose: 200.0 mg/kg/injection, schedule: Q01DX009 (ip), vehicle: Klucel (hydroxypropylcellulose) (HPC)
[4] = dose: 200.0 mg/kg/injection, schedule: Q04DX003 (ip), vehicle: Klucel (hydroxypropylcellulose) (HPC)
[5] = dose: 400.0 mg/kg/injection, schedule: Q01DX009 (ip), vehicle: Klucel (hydroxypropylcellulose) (HPC)
[6] = dose: 400.0 mg/kg/injection, schedule: Q04DX003 (ip), vehicle: Klucel (hydroxypropylcellulose) (HPC)
[7] = dose: 100.0 mg/kg/injection, schedule: Q01DX009 (ip), vehicle: saline with Tween-80
[8] = dose: 200.0 mg/kg/injection, schedule: Q01DX009 (ip), vehicle: saline with Tween-80
[9] = dose: 400.0 mg/kg/injection, schedule: Q01DX009 (ip), vehicle: saline with Tween-80
[10] = dose: 50.0 mg/kg/injection, schedule: Q01DX009 (ip), vehicle: Klucel (hydroxypropylcellulose) (HPC)
[11] = dose: 100.0 mg/kg/injection, schedule: Q01DX001 (ip), vehicle: saline
[12] = dose: 100.0 mg/kg/injection, schedule: Q04DX003 (ip), vehicle: saline
[13] = dose: 200.0 mg/kg/injection, schedule: Q01DX001 (ip), vehicle: saline
[14] = dose: 200.0 mg/kg/injection, schedule: Q04DX003 (ip), vehicle: saline
[15] = dose: 400.0 mg/kg/injection, schedule: Q01DX001 (ip), vehicle: saline
[16] = dose: 400.0 mg/kg/injection, schedule: Q04DX003 (ip), vehicle: saline

Measured: T/C

CC(C)(CN=Cc1cccc(O)c1)N=Cc1cccc(O)c1
inactive: dose: 75.0 mg/kg/injection, schedule: Q01DX009 (ip), vehicle: DMSO 95 % of control | dose: 100.0 mg/kg/injection, schedule: Q01DX001 (ip), vehicle: DMSO 100 % of control | dose: 100.0 mg/kg/injection, schedule: Q04DX003 (ip), vehicle: DMSO 89 % of control | dose: 150.0 mg/kg/injection, schedule: Q01DX009 (ip), vehicle: DMSO 93 % of control | dose: 200.0 mg/kg/injection, schedule: Q01DX001 (ip), vehicle: DMSO 96 % of control | dose: 200.0 mg/kg/injection, schedule: Q04DX003 (ip), vehicle: DMSO 88 % of control | dose: 400.0 mg/kg/injection, schedule: Q01DX001 (ip), vehicle: DMSO 100 % of control | dose: 400.0 mg/kg/injection, schedule: Q04DX003 (ip), vehicle: DMSO 89 % of control

COC(=O)c1c(I)cccc1[N+](=O)[O-]
inactive: [1] 92 % of control | [2] 97 % of control | [3] 91 % of control | [4] 103 % of control | [5] 96 % of control | [6] 97 % of control

CC1(CCN2CCC3(CC2)C(=O)NCN3c2ccccc2)Oc2ccccc2O1
inactive: [2] 104 % of control | [4] 111 % of control | [6] 93 % of control

CC(Br)C(=O)NC(C)C(=O)O (centres undefined)
inactive: [7] 89 % of control | [8] 86 % of control | [9] 91 % of control

CC1(C2C3OC(=O)C2C2(O)CC4OC45C(=O)OC3C25C)CO1 (centres undefined)
inactive: dose: 25.0 mg/kg/injection, schedule: Q01DX009 (ip), vehicle: Klucel (hydroxypropylcellulose) (HPC) 92 % of control | [10] 104 % of control | [1] 95 % of control

Cc1c(C#N)c2n(c1C)CCCC(=O)N2
inactive: dose: 50.0 mg/kg/injection, schedule: Q01DX009 (ip), vehicle: saline with Tween-80 91 % of control | dose: 50.0 mg/kg/injection, schedule: Q04DX003 (ip), vehicle: saline with Tween-80 101 % of control | [7] 90 % of control | dose: 100.0 mg/kg/injection, schedule: Q04DX003 (ip), vehicle: saline with Tween-80 88 % of control | [8] 91 % of control | dose: 200.0 mg/kg/injection, schedule: Q04DX003 (ip), vehicle: saline with Tween-80 97 % of control | [9] 88 % of control | dose: 400.0 mg/kg/injection, schedule: Q04DX003 (ip), vehicle: saline with Tween-80 92 % of control

O=C1CC2CCCC(C1)S2
inactive: dose: 75.0 mg/kg/injection, schedule: Q01DX001 (ip), vehicle: carboxymethylcellulose (CMC) 107 % of control | dose: 100.0 mg/kg/injection, schedule: Q04DX002 (ip), vehicle: Klucel (hydroxypropylcellulose) (HPC) 86 % of control | dose: 150.0 mg/kg/injection, schedule: Q01DX001 (ip), vehicle: carboxymethylcellulose (CMC) 109 % of control | dose: 200.0 mg/kg/injection, schedule: Q04DX002 (ip), vehicle: Klucel (hydroxypropylcellulose) (HPC) 100 % of control | dose: 300.0 mg/kg/injection, schedule: Q01DX001 (ip), vehicle: carboxymethylcellulose (CMC) 102 % of control | dose: 400.0 mg/kg/injection, schedule: Q04DX002 (ip), vehicle: Klucel (hydroxypropylcellulose) (HPC) 86 % of control

CC1(CC(=O)NN)OCCO1
inactive: dose: 100.0 mg/kg/injection, schedule: Q01DX001 (ip), vehicle: Klucel (hydroxypropylcellulose) (HPC) 104 % of control | dose: 200.0 mg/kg/injection, schedule: Q01DX001 (ip), vehicle: Klucel (hydroxypropylcellulose) (HPC) 102 % of control | dose: 400.0 mg/kg/injection, schedule: Q01DX001 (ip), vehicle: Klucel (hydroxypropylcellulose) (HPC) 107 % of control

OCCc1ccccc1
inactive: [7] 96 % of control | [8] 100 % of control | [9] 99 % of control

COc1cccc(N=Cc2ccc(C=Nc3cccc(OC)c3)cc2)c1
inactive: [1] 89 % of control | [3] 94 % of control | [5] 88 % of control

NCc1c[nH]c2ccccc12
inactive: dose: 44.0 mg/kg/injection, schedule: Q01DX Z (ip), vehicle: water 107 % of control | dose: 66.0 mg/kg/injection, schedule: Q01DX Z (ip), vehicle: water 105 % of control | [11] 95 % of control | dose: 100.0 mg/kg/injection, schedule: Q01DX Z (ip), vehicle: water 105 % of control | [12] 98 % of control | dose: 150.0 mg/kg/injection, schedule: Q01DX Z (ip), vehicle: water 105 % of control | [13] 92 % of control | [14] 95 % of control | [15] 89 % of control | [16] 88 % of control

CC[Si](Cl)(CC)CCCl
inactive: [12] 98 % of control | [14] 97 % of control | [16] 117 % of control

O=C1C(=O)c2cccc([N+](=O)[O-])c2-c2c1cccc2[N+](=O)[O-]
inactive: [11] 102 % of control | [13] 106 % of control | [15] 102 % of control

CN(C)c1ccc(C(C[N+](=O)[O-])(c2ccc(N(C)C)cc2)c2ccc(N(C)C)cc2)cc1
inactive: [1] 93 % of control | [2] 103 % of control | [3] 100 % of control | [4] 93 % of control | [5] 97 % of control | [6] 90 % of control

CCCCO.[Sn]
inactive: dose: 50.0 mg/kg/injection, schedule: Q01DX009 (ip), vehicle: saline 99 % of control and 109 % of control | dose: 100.0 mg/kg/injection, schedule: Q01DX009 (ip), vehicle: saline 96 % of control and 109 % of control | dose: 200.0 mg/kg/injection, schedule: Q01DX009 (ip), vehicle: saline 99 % of control and 106 % of control

CC(=O)OC1CCC2(C)C(CCC3C2CCC2(C)C3CC(OC(C)=O)C2C(C)C2=NCC(C)CC2)C1 (centres undefined)
inactive: [2] 94 % of control | [4] 98 % of control | [6] 105 % of control

CC1([N+](=O)[O-])COP(=O)(NCc2ccccc2)OC1 (centres undefined)
inactive: dose: 50.0 mg/kg/injection, schedule: Q01DX001 (ip), vehicle: carboxymethylcellulose (CMC) 97 % of control | dose: 100.0 mg/kg/injection, schedule: Q01DX001 (ip), vehicle: carboxymethylcellulose (CMC) 107 % of control | dose: 200.0 mg/kg/injection, schedule: Q01DX001 (ip), vehicle: carboxymethylcellulose (CMC) 109 % of control | dose: 400.0 mg/kg/injection, schedule: Q01DX001 (ip), vehicle: carboxymethylcellulose (CMC) 97 % of control

O=C1/C(=C\c2ccccc2)C2CCC(C2)/C1=C\c1ccccc1
inactive: [10] 99 % of control | [1] 102 % of control | [3] 99 % of control

CN(CC(O)COc1ccccc1)CC1CCCO1 (centres undefined)
inactive: dose: 25.0 mg/kg/injection, schedule: Q04DX003 (ip), vehicle: Klucel (hydroxypropylcellulose) (HPC) 98 % of control | dose: 50.0 mg/kg/injection, schedule: Q04DX003 (ip), vehicle: Klucel (hydroxypropylcellulose) (HPC) 97 % of control | [2] 95 % of control and 98 % of control
